The results in this text go back to PMC12040169 (PLOS Biology, 2025).

Peptide text beside a SMILES is read from it. * marks the point of attachment. Bz = O=C(c1ccccc1)*

This data set is described as follows: in vitro. Particulars: human, hela cells, % viability.
For orientation: viability means a read-out of living cells in per cent, often relative to untreated cells. As to `CCN(CC)C(=O)C1CCCN(C(=O)NCC2COc3ccccc3O2)C1` (stereo not drawn) [CBK156116], the viability at 28.5 h, 10 µM came out at 81.4%. The value for `CN1CCN(Cc2c(O)ccc3c(=O)c(-c4ccc(Cl)cc4)coc23)CC1` [CBK263314] was 102%; that for `O=C(COc1ccc(S(=O)(=O)N2CCCC2)cc1Cl)Nc1ccc2c(c1)OCCO2` [CBK268559] was 116%; that for `COc1ccc(CNC(=O)CN2CCCCC2Cn2cccn2)cc1` (stereo not drawn) [CBK305379] was 93.1%.

For the compound `Cc1csc(C(Cc2ccsc2)NCc2cccnc2)n1` (stereo not drawn) [CBK285020], the viability at 28.5 h, 10 µM turned out to be 96.6%.

Regarding `Cc1[nH]c(=O)[nH]c(=O)c1C(=O)Nc1ccccc1` [CBK116181], the viability at 28.5 h, 10 µM was found to be 96.4%. The value for `CC(C)(C)OC(=O)N1CCC(c2cc(=O)n3c(n2)CCCCC3)C1` (stereo not drawn) [CBK283415] was 88.4%.

As for `COc1ccc([C@@]23CC[C@@H](NC(=O)Nc4cc(F)c(C#N)cc4F)C[C@@H]2N(C)CC3)cc1OC` [CBK073979T], the viability at 28.5 h, 10 µM turned out to be 98.2%. The value for `Cc1cccnc1NC(=O)COc1ccc(Cl)cc1` [CBK262175] was 106%. As for `Cc1cc(NC(=O)Cc2ccc(Cl)c(Cl)c2)c2ccccc2n1` [CBK116266], the figure is 99.3%; as for `Cn1cccc1C(=O)N[C@H]1C[C@@H]2C(=O)N[C@H]3CCN(C(=O)CC(C)(C)C)[C@@H]3C(=O)N2C1` [CBK289271], 111%. As for `CCCOc1ccc(C(CC(=O)O)NS(=O)(=O)c2ccc(F)cc2)cc1` (stereo not drawn) [CBK287139], the figure is 102%.

As to `CCC(=O)N(C)C1CCN(c2ncnc3ccccc23)CC1` [CBK304829], the viability at 28.5 h, 10 µM was 91.8%. As for `CN1CCN(S(=O)(=O)c2ccc(-c3cc(C(F)(F)F)on3)s2)CC1` [CBK057780], the figure is 96%; as for `O=C(O)CCC(=O)N1CCCC2(CCN(Cc3ccccc3)C2)C1` (stereo not drawn) [CBK136890], 97%. The value for `COc1ccc2c(c1)C(C(C(=O)O)C(=O)O)c1ccccc1O2` (stereo not drawn) [CBK266435] was 93.8%; that for `CC1=CC(c2ccc(Cl)cc2)n2nc(NC(=O)CCC(=O)O)nc2N1` (stereo not drawn) [CBK264331] was 100%. The value for `CC(C)[C@@H](CO)Nc1nccnc1-c1cccs1` [CBK089024] was 93.7%; that for `O=C(Cc1ccc(Cl)c(Cl)c1)NCCc1c[nH]c2ccc(Cl)cc12` [CBK159749] was 100%; that for `Cc1cc(C)cc(NC(=O)CSc2ncccn2)c1` [CBK287577] was 97.8%.

Take `Cc1nc(C)c(C(=O)NCCN2CCCC2=O)s1` [CBK282222]: the viability at 28.5 h, 10 µM stood at 84.2%. As for `CC(=O)N1CCc2c([nH]c3ccccc23)C1CCN(C)Cc1ccc(F)cc1` (stereo not drawn) [CBK066969], the figure is 93.9%; as for `COC(=O)[C@@H](C)NC(=O)[C@@H]1CN(C(=O)c2cccc(F)c2)CCN1S(C)(=O)=O` [CBK289625], 96.8%.

Turning to `Cc1ccc(C(=O)NCc2ccco2)c(N2CCOCC2)n1` [CBK076410], the viability at 28.5 h, 10 µM turned out to be 89.9%. For `O=C(OCc1cc2ccccc2cn1)N1CCOCC1` [CBK200121], the viability at 28.5 h, 10 µM turned out to be 102%. The value for `COC(=O)c1ccc(Cl)cc1N(Cc1c(F)cccc1Cl)S(C)(=O)=O` [CBK021351] was 85.3%; that for `Cc1noc(C)c1CC(=O)Nc1nc2c(cc1C#N)CCCC2` [CBK306429] was 97.1%; that for `CC(=O)Nc1cccc(-c2cncc(NC3CCC(O)CC3)n2)c1` (stereo not drawn) [CBK065404] was 88.6%. As to `CCOC(=O)CCCNC(=O)N1CCCC(C(=O)O)C1` (stereo not drawn) [CBK161374], the viability at 28.5 h, 10 µM was 83.5%. As for `COc1ccc2nc(NC(=O)c3cccc(N4C(=O)CCC4=O)c3)sc2c1` [CBK287351], the figure is 108%. As for `CCN(CC)CCN1CCN(c2cc(-c3ccsc3)ncn2)CC1` [CBK036973], the figure is 93.7%; as for `Cc1oc(-c2ccccc2)cc1C(=O)Nc1ccc(N2CCNCC2)nc1` [CBK034127T], 80.3%; as for `CCCOc1ccc(-c2cc(C(=O)NO)n[nH]2)cc1C` [CBK288362], 61.3%. As for `CCc1nccn1CCC(=O)N1CC(OCc2ccccc2F)C1` [CBK306597], the figure is 88.5%; as for `O=C(c1cncnc1)N1Cc2ccccc2C1` [CBK200223], 106%; as for `CC1CCCN(C(=O)Cn2ncn3c(cc4ccsc43)c2=O)C1` (stereo not drawn) [CBK284245], 84.5%. With `CN1CCN(c2cc(NCC(c3cccnc3)N(C)C)nc3ccnn23)CC1` (stereo not drawn) [CBK037157], the viability at 28.5 h, 10 µM was determined as 106%. On to `Cc1nc(CNCc2c(C(C)C)nn(C)c2N(C)C)cs1` [CBK305119], for which the viability at 28.5 h, 10 µM worked out at 109%. The value for `COc1ncc(-c2nccnc2NCc2cccc(OC)c2OC)c(OC)n1` [CBK037506] was 76.9%; that for `O=C(c1cc2c(F)cccc2[nH]1)N1CCCCC1CCN1CCCC1` (stereo not drawn) [CBK281612] was 85.7%; that for `CCOc1cc(OCC)cc(C(=O)N2CCC3(CC2)CC(=O)c2cc(CC)ccc2O3)c1` [CBK168009] was 101%. As for `c1ccc(C2=Nn3c(Cn4nnc5ccccc54)nnc3SC2)cc1` [CBK268232], the figure is 91.7%. As for `COc1cccc2c1OC(c1cccnc1)N1N=C(c3cccc(O)c3)CC21` (stereo not drawn) [CBK287747], the figure is 104%; as for `CCN1CCCC1CN(Cc1cccs1)CC1CCOC1` (stereo not drawn) [CBK282602], 97.1%; as for `COc1ccc(O)c(C(=O)c2cnn(-c3ccccn3)c2)c1` [CBK295141], 97.9%. As for `COC(=O)c1cc(C#N)c(=O)n(CC(=O)Nc2ccc(OC)c(OC)c2)c1` [CBK297926], the viability at 28.5 h, 10 µM was determined as 102%.

Take `O=C1COc2ccccc2C/C=C/CC2(CCCN(C(=O)CCN3CCCC3)C2)CN1` (stereo not drawn) [CBK292136]: the viability at 28.5 h, 10 µM was 102%. The value for `COc1ccc(CC(=O)NC(c2nnc3ccccn23)C(C)C)cc1` (stereo not drawn) [CBK304607] was 89.4%. As for `COc1ccc(N2CCN(c3cc(-c4ccc(OC(F)(F)F)cc4)ncn3)CC2)cc1OC` [CBK091032], the figure is 94.1%. As for `Cc1ccc2nc3c(cc2c1)CN(Cc1ccco1)C(=O)CO3` [CBK283594], the figure is 103%. Turning to `CCc1cc2c(=O)c(-c3nc(C)cs3)c(C)oc2cc1OCc1ccc([N+](=O)[O-])cc1` [CBK268305], the viability at 28.5 h, 10 µM stood at 101%. The value for `CN(C(=O)C1CCCO1)c1nc2c(s1)CCc1occc1-2` (stereo not drawn) [CBK283483] was 88.8%. As for `O=C(NC(Cc1ccccc1)C(=O)N1CCCC1C(=O)O)c1ccccc1` (stereo not drawn) [CBK264058] (Bz-Phe-Pro-OH; configuration not given here), the figure is 90.8%; as for `O=[N+]([O-])c1ccc(N2CCNCC2)cc1NCc1ccccn1` [CBK268074], 122%; as for `Cc1ccc(S(=O)(=O)Nc2ccccc2-c2nc3ccccc3c(=O)o2)cc1` [CBK087613], 94.5%. As for `C=Cn1ncc(CN2C3CCC2CC(O)(c2ccc(F)cc2)C3)c1C` (stereo not drawn) [CBK282738], the figure is 104%; as for `O=C(Nc1ccc(F)cc1)N[C@H]1[C@H](O)[C@@H](N2CCCCC2)[C@@H]2OC[C@H]1O2` [CBK288826], 98.5%.
